Measured values as given in US9783500B2, “2-aminoquinoline-based compounds for potent and selective neuronal nitric oxide synthase inhibition” (priority 2014, dated 2017).
Counter-ions that a name gives are not always drawn.

biological target: rat nNOS (Rattus norvegicus (Rat), UniProt P29476); details: Table 1; ratio of Ki values, bovine eNOS/rat nNOS

SMILES	Selectivity n/e
Cl.Cl.Nc1ccc2ccc(CNCCc3cccc(F)c3)cc2n1 [5 (Ex. 8), 7-[(3-Fluorophenethylamino)methyl]quinolin-2-amine Dihydrochloride]	6.2
Cl.Cl.Nc1ccc2ccc(CCNCCc3ccc(Cl)cc3)cc2n1 [16 (Ex. 18), 7-[(4-Chlorophenethylamino)ethyl]quinolin-2-amine Dihydrochloride]	47

Next, values leading:

Selectivity n/e	SMILES
30	Cl.Cl.Nc1ccc2ccc(CCNCc3cccc(F)c3)cc2n1 [6 (Ex. 12), 7-[2-(3-Fluorobenzylamino)ethyl]quinolin-2-amine Dihydrochloride]
62	Nc1ccc2ccc(CNCCCc3cccc(F)c3)cc2n1 [9 (Ex. 9), 7-{2-[3-(3-Fluorophenyl(propylamino)methyl]}quinolin-2-amine Dihydrochloride]

same assay, conditions: Table 1; ratio of Ki values, murine iNOS/rat nNOS

SMILES	Selectivity n/i
Cl.Cl.Nc1ccc2ccc(CCNCCc3ccc(F)cc3)cc2n1 [14 (Ex. 16), 7-[(4-Fluorophenethylamino)ethyl]quinolin-2-amine Dihydrochloride]	280
Cl.Cl.Nc1ccc2ccc(CCNCCc3ccc(Cl)cc3)cc2n1 [16 (Ex. 18), 7-[(4-Chlorophenethylamino)ethyl]quinolin-2-amine Dihydrochloride]	91

Results, then the compound that gave them:

Selectivity n/i	SMILES
97	Cl.Cl.Nc1ccc2ccc(CCNCc3cccc(F)c3)cc2n1 [6 (Ex. 12), 7-[2-(3-Fluorobenzylamino)ethyl]quinolin-2-amine Dihydrochloride]
538	Nc1ccc2ccc(CNCCCc3cccc(F)c3)cc2n1 [9 (Ex. 9), 7-{2-[3-(3-Fluorophenyl(propylamino)methyl]}quinolin-2-amine Dihydrochloride]

same assay, conditions: read-out: Ki nNOS; Table 1; purified rat nNOS; Ki calculated from IC50

SMILES	Ki [µM]
Nc1ccc2cc(CCNCCCc3cccc(F)c3)ccc2n1 [13 (Ex. 30), 6-{2-[3-(3-Fluorophenyl(propylamino)ethyl]}quinolin-2-amine Dihydrochloride]	4.37
